Molecular target: URAT-1 (uric acid transporter) (Homo sapiens (Human), UniProt Q96S37)
Experiment: Inhibition of 14C uric acid transport by HEK293 cell line stably transfected with the URAT-1 gene
Assay type: cell-based
Conditions: URAT-1 (HEK293) cells; 14C-labelled uric acid 50 um, 10 min at 37° C.; read-out: IC50 (inhibition against URAT-1)
Protocol: Determination of the IC50 value of the inhibitory activity of the compound against uric acid reabsorption by the HEK293 cell line stably transfected with the URAT-1 (uric acid transporter) gene.
URAT-1 (HEK293) cell line: the HEK293 cell line stably transfected with the URAT-1 gene
cell culture medium: DMEM culture medium added 10% fetal bovine serum (FBS), 1% sodium pyruvate and […] G418.
Uric acid solution labeled by ^14C.
1) the supernatant of cell culture was aspirated, and cells was washed with 10 mL PBS.
2) preheated trypsin was added into the cell culture flask, and the cell culture flask was rotated to make trypsin covering onto the bottom of cell culture flask equably.
3) the cells were suspended with 10-15 mL of culture medium in each T150 flask, took 0.1 mL of cell suspension and diluted it with two volumes of trypan blue solution to count the cells.
4) cells were diluted to 2.5×10^5/mL with the culture medium, and the diluted cells were added into a rat tail collagen-coated 24-well plate (800 uL/well, 2×10^5 cells/well). The plate was incubated overnight at 37° C. in a 5% CO2 incubator.
1) cells were seeded into 24-well plate, and supernatant was discarded after 16-18 h. The cells were washed twice using 600 ul HBSS buffer.
2) HBSS buffer was removed and 180 ul of HBSS buffer was added into each well again.
1) compounds were dissolved into 100% DMSO, and diluted into 6 concentration points by 3-fold dilution, or into 2 concentration points by 10-fold dilution, and the highest starting concentration was 50 mM.
2) 5 ul DMSO solution in step 1) was transferred into 120 ul of HBSS buffer to make a 25-fold dilution.
3) 10 ul diluted solution in step 2) was added into 24-well plate, and the plate was incubated for 15 min at 37° C. in a 5% CO2 incubator. The final concentration of DMSO is 0.2%. The control well contained 0.2% DMSO without compound.
^14C-labelled uric acid was diluted and added into plate, and the final concentration is 50 um. The plate was incubated for 10 min at 37° C. in a 5% CO2 incubator. After supernatant was discarded, cells were washed with HBSS buffer twice. Cells was lysed with 0.1M NaOH. And then cell lysis solution was collected into liquid scintillation tube and added with liquid scintillation solution. The signal was read by liquid scintillation counter Tri-Carb. e) data analysis URAT-1 inhibition by the treatment of the compounds was analyzed by calculating the percentage of inhibition. Non-linear fitting analysis of percent inhibition (inh %) data using GraphPad Prism software to generate the IC50 value.

Sequence of URAT-1 (uric acid transporter) (Q96S37 whole entry): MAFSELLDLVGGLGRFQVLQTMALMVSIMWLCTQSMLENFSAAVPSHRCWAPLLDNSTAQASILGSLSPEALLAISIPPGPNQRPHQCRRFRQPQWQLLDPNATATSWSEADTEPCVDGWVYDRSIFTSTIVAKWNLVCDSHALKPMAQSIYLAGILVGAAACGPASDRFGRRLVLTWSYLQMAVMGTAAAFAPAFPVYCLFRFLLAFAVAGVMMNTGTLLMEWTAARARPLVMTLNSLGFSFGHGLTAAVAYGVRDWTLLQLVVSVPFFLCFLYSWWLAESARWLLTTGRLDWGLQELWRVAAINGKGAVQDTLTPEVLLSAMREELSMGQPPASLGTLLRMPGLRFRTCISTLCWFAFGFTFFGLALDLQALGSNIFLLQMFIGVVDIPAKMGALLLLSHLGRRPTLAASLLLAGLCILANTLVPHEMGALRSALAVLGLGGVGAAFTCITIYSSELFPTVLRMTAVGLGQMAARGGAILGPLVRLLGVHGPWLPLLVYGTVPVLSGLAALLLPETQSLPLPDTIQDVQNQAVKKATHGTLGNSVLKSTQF

Row | SMILES | IC50 [nM]
1 | Cc1cc(-n2c(Br)nnc2SCC(=O)O)sc1-c1ccccc1 [WX079] | 2000 to 20000
2 | Cc1cc(-n2c(Br)nnc2SC2(C(=O)O)CCCC2)sc1C1CC1 [WX092] | < 2000
3 | CN(C)c1ccc(-c2sc(-n3cnnc3SCC(=O)O)c3c2CCC3)cc1 [WX053] | > 20000
4 | O=C(O)C1(Sc2nnc(Br)n2-c2sc(C3CC3)c3c2CCC3)CCCC1 [WX060] | < 2000
5 | Cc1cc(-n2c(Br)nnc2SCC(=O)O)sc1-c1ccc(F)cc1 [WX082] | > 20000
6 | Cc1cc(-n2c(Br)nnc2SCC(=O)O)sc1-c1ccc(C(C)(C)C)cc1 [WX085] | > 20000
7 | CC1(C)CCc2c(-n3c(Br)nnc3SC(C)(C)C(=O)O)sc(C3CC3)c2C1 [WX035] | < 2000
8 | CCOC(=O)C(C)Sc1nncn1-c1cc(Br)c(C2CC2)s1 (stereo not shown) [WX074] | > 20000
9 | Cc1cc(-n2c(Br)nnc2SC(C)(C)C(=O)O)sc1-c1ccccc1 [WX081] | 2000 to 20000
10 | O=C(O)CSc1nncn1-c1sc(-c2ccc(Cl)cc2)c2c1CCC2 [WX054] | > 20000
11 | CC(C)(Sc1nnc(Br)n1-c1sc(C2CC2)c2c1CCC(F)(F)C2)C(=O)O [WX033] | < 2000
12 | Cc1cc(-n2c(Br)nnc2SC2(C(=O)O)CCC2)sc1C1CC1 [WX093] | < 2000
13 | CC(C)(Sc1nnc(Br)n1-c1sc(-c2ccc(F)c(F)c2)c2c1CCCC2)C(=O)O [WX013] | < 2000
14 | CC(C)C(Sc1nnc(Br)n1-c1sc(C2CC2)c2c1CCCC2)C(=O)O (stereo not shown) [WX028] | < 2000
15 | O=C(O)CSc1nnc(Br)n1-c1sc(-c2cccc(F)c2)c2c1CCC2 [WX039] | > 20000
16 | O=C(O)CSc1nnc(Br)n1-c1sc(-c2ccccc2)c2c1OCCO2 [WX099] | > 20000
17 | O=C(O)CSc1nnc(Br)n1-c1sc(C2CC2)c2c1CCCC2 [WX001] | < 2000

Row | SMILES | IC50 [nM]
18 | COC(=O)C(C)Sc1nncn1-c1cc(Br)c(-c2ccccc2)s1 (stereo not shown) [WX075] | 2000 to 20000
19 | CCOC(=O)C(C)(C)Sc1nncn1-c1cc(Br)c(C2CC2)s1 [WX076] | 2000 to 20000
20 | COc1ccc(-c2sc(-n3c(Br)nnc3SCC(=O)O)cc2C)cc1 [WX083] | > 20000
21 | CN(C)c1ccc(-c2sc(-n3cnnc3SC(C)(C)C(=O)O)c3c2CCCC3)cc1Br [WX023] | 2000 to 20000
22 | COc1ccc(-c2sc(-n3c(Br)nnc3SCC(=O)O)c3c2CCCC3)cc1 [WX017] | 2000 to 20000
23 | CCC(C)(Sc1nnc(Br)n1-c1sc(C2CC2)c2c1CCC2)C(=O)O (stereo not shown) [WX063] | < 2000
24 | CC(Sc1nnc(Br)n1-c1sc(-c2ccc(C(F)(F)F)cc2)c2c1CCCC2)C(=O)O (stereo not shown) [WX014] | < 2000
25 | O=C(O)CSc1nnc(Br)n1-c1sc(-c2ccc(Cl)c(Cl)c2)c2c1CCCC2 [WX019] | 2000 to 20000
26 | CC(Sc1nncn1-c1sc(C2CC2)c2c1CCCC2)C(=O)O (stereo not shown) [WX036] | > 20000
27 | CC(C)(C)c1ccc(-c2sc(-n3c(Br)nnc3SCC(=O)O)c3c2CCC3)cc1 [WX046] | > 20000
28 | CC(C)(Sc1nnc(Br)n1-c1cc(Cl)c(C2CC2)s1)C(=O)O [WX067] | < 2000
29 | Cc1cc(-n2cnnc2SCC(=O)O)sc1-c1ccc(F)cc1 [WX095] | > 20000
30 | CC(Sc1nnc(Br)n1-c1sc(C2CC2)c2c1CCC2)C(=O)O (stereo not shown) [WX061] | < 2000
31 | C[C@@H](Sc1nnc(Br)n1-c1sc(C2CC2)c2c1CCCC2)C(=O)O [WX031] | < 2000
32 | Cc1cc(-n2c(Br)nnc2SC(C(=O)O)C(C)C)sc1C1CC1 (stereo not shown) [WX088] | < 2000
33 | O=C(O)CSc1nncn1-c1sc(-c2ccc(F)c(F)c2)c2c1CCCC2 [WX021] | > 20000
34 | O=C(O)C(Sc1nnc(Br)n1-c1sc(C2CC2)c2c1CCC2)c1ccccc1 (stereo not shown) [WX064] | 2000 to 20000
